Data on 21 compounds can be found in patent US20100204203A1, “Chemical Compounds 637: Pyridopyrimidinediones as PDE4 Inhibitors” (priority 2007, published 2010).

Structures can show the parent of a compound that is named as a salt.

Chain of recombinant Human Phosphodiesterase B2 (PDE4B2) (Q07343 1-564 isoform Q07343-2): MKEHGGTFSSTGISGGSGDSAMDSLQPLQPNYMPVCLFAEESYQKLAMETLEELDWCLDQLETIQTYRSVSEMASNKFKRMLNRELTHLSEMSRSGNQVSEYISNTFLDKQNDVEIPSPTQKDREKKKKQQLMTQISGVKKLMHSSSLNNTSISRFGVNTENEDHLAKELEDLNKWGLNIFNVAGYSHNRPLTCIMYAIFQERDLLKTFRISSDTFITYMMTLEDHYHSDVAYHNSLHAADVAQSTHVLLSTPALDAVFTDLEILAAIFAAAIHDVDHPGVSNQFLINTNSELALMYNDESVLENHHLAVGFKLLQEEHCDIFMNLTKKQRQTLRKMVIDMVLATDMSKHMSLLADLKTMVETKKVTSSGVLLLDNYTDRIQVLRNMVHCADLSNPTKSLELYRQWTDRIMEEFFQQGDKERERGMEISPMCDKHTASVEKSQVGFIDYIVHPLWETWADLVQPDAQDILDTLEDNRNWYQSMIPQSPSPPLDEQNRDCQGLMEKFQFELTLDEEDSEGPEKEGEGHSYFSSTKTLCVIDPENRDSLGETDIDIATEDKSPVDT

The target in the test is recombinant Human Phosphodiesterase B2 (PDE4B2) (Homo sapiens, UniProt Q07343). In words: Human Phosphodiesterase B2 Radiometric Assay (yttrium silicate SPA beads, [3H]cyclic AMP). Type of test: biochemical. The settings on record: recombinant human PDE4B2, radiometric SPA assay, 8 nM [3H]cyclic AMP; read-out: PDE4B2 pIC50 (converted). In short, it runs like this:
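Compounds were preincubated 30 min at 30 °C with 0.1 mg/mL PDE4B2 in 50 mM HEPES pH 7.5, 8.3 mM MgCl2, 1.7 mM EGTA, 0.01% Brij 35. Then 8 nM [3H]cAMP was added for 20 min, stopped with yttrium silicate SPA beads plus 18 mM ZnSO4 capturing product 5′AMP; pIC50 by curve fitting.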
Consider `CC(=O)N1CCN(Cc2ccc(-c3cccc(-n4c(=O)n([C@H]5CC[C@@H](NC(=O)c6cc(C)n(C)n6)CC5)c(=O)c5cc(F)cnc54)c3)cc2)CC1` [Example 213, N-{cis-4-[1-{4′-[(4-acetylpiperazin-1-yl)methyl]biphenyl-3-yl}-6-fluoro-2,4-dioxo-1,4-dihydropyrido[2,3-d]pyrimidin-3(2H)-yl]cyclohexyl}-1,5-dimethyl-1H-pyrazole-3-carboxamide], for which the IC50 was 0.0158 nM.
Consider `CC(=O)N[C@H]1CC[C@@H](n2c(=O)c3cc(F)cnc3n(-c3cccc(-c4ccccc4CN4CCOCC4)c3)c2=O)CC1` [Example 62, N-{cis-4-[6-fluoro-1-[2′-(morpholin-4-ylmethyl)biphenyl-3-yl]-2,4-dioxo-1,4-dihydropyrido[2,3-d]pyrimidin-3(2H)-yl]cyclohexyl}acetamide], for which the IC50 was 0.316 nM.
As to `CN(C)CC(=O)N[C@H]1CC[C@@H](n2c(=O)c3cc(F)cnc3n(-c3cccc(-c4ccc(CN5CCCN(C)CC5)cc4)c3)c2=O)CC1` [Example 287, N-{cis-4-[6-fluoro-1-{4′-[(4-methyl-1,4-diazepan-1-yl)methyl]biphenyl-3-yl}-2,4-dioxo-1,4-dihydropyrido[2,3-d]pyrimidin-3(2H)-yl]cyclohexyl}-N^2,N^2-dimethylglycinamide], the IC50 was 0.631 nM.
Then `O=c1c2cc(F)cnc2n(-c2cccc(-c3ccc(CN4CCCOCC4)cc3)c2)c(=O)n1[C@H]1CC[C@@H](NCc2cn3cc(F)ccc3n2)CC1` [Example 338, 6-fluoro-3-(cis-4-{[(6-fluoroimidazo[1,2-a]pyridin-2-yl)methyl]amino}cyclohexyl)-1-[4′-(1,4-oxazepan-4-ylmethyl)biphenyl-3-yl]pyrido[2,3-d]pyrimidine-2,4(1H,3H)-dione], with 0.251 nM.
On to `O=c1c2cc(F)cnc2n(-c2cccc(-c3ccc(O)cc3CN3CCOCC3)c2)c(=O)n1[C@H]1CC[C@@H](NCCCc2ccccc2)CC1` [Example 248, 6-Fluoro-1-[4′-hydroxy-2′-(morpholin-4-ylmethyl)biphenyl-3-yl]-3-{cis-4-[(3-phenylpropyl)amino]cyclohexyl}pyrido[2,3-d]pyrimidine-2,4(1H,3H)-dione], for which the IC50 was 1.26 nM.
For `CC(=O)N1CCN(Cc2cc(O)ccc2-c2cccc(-n3c(=O)n([C@H]4CC[C@@H](NCc5cn6cc(F)ccc6n5)CC4)c(=O)c4cc(F)cnc43)c2)CC1` [Example 328, 1-{2′-[(4-acetylpiperazin-1-yl)methyl]-4′-hydroxybiphenyl-3-yl}-6-fluoro-3-(cis-4-{[(6-fluoroimidazo[1,2-a]pyridin-2-yl)methyl]amino}cyclohexyl)pyrido [2,3-d]pyrimidine-2,4(1H,3H)-dione] the value was 0.01 nM; for `O=C(NC1CN2CCC1CC2)c1cccc(-n2c(=O)n([C@H]3CC[C@@H](NC(=O)c4cn5cc(F)ccc5n4)CC3)c(=O)c3cc(F)cnc32)c1` (stereo partly drawn) [Example 42, N-{cis-4-[1-{3-[(1-azabicyclo[2.2.2]oct-3-ylamino)carbonyl]phenyl}-6-fluoro-2,4-dioxo-1,4-dihydropyrido[2,3-d]pyrimidin-3 (2H)-yl]cyclohexyl}-6-fluoroimidazo[1,2-a]pyridine-2-carboxamide], 20 nM; for `CC(C)C(=O)N[C@H]1CC[C@@H](n2c(=O)c3cc(F)cnc3n(-c3cccc(-c4ccc(CN5CCN(C(C)C)CC5)cc4)c3)c2=O)CC1` [Example 238, N-{cis-4-[6-fluoro-1-{4′-[(4-isopropylpiperazin-1-yl)methyl]biphenyl-3-yl}-2,4-dioxo-1,4-di-hydropyrido[2,3-d]pyrimidin-3(2H)-yl]cyclohexyl}-2-methyl-propanamide], 0.2 nM.
For `O=C1CN(Cc2cc(O)ccc2-c2cccc(-n3c(=O)n([C@H]4CC[C@@H](NCc5cn6cc(F)ccc6n5)CC4)c(=O)c4cc(F)cnc43)c2)CCN1` [Example 377, 6-fluoro-3-(cis-4-{[(6-fluoroimidazo[1,2-a]pyridin-2-yl)methyl]amino}cyclohexyl)-1-{4′-hydroxy-2′-[(3-oxopiperazin-1-yl)methyl]biphenyl-3-yl}pyrido[2,3-d]pyrimidine-2,4(1H,3H)-dione] the value was 0.0631 nM; for `CN(C)Cc1ccccc1-c1cccc(-n2c(=O)n([C@H]3CC[C@@H](NC(=O)[C@H]4CCCN4C)CC3)c(=O)c3cc(F)cnc32)c1` [Example 88, N-{cis-4-[1-{2′-[(dimethylamino)methyl]biphenyl-3-yl}-6-fluoro-2,4-dioxo-1,4-dihydropyrido[2,3-d]pyrimidin-3(2H)-yl]cyclohexyl}-1-methyl-D-prolinamide], 50.1 nM; for `Cc1cc(CN[C@H]2CC[C@@H](n3c(=O)c4cc(F)cnc4n(-c4cccc(-c5ccc(O)cc5CN5CCOCC5)c4)c3=O)CC2)nn1C` [Example 251, 3-(cis-4-{[(1,5-Dimethyl-1H-pyrazol-3-yl)methyl]amino}cyclohexyl)-6-fluoro-1-[4′-hydroxy-2′-(morpholin-4-ylmethyl)biphenyl-3-yl]pyrido[2,3-d]pyrimidine-2,4(1H,3H)-dione], 0.1 nM.
Then `CN(CC(=O)N(C)C)Cc1cc(O)ccc1-c1cccc(-n2c(=O)n([C@H]3CC[C@@H](NCc4cn5cc(F)ccc5n4)CC3)c(=O)c3cc(F)cnc32)c1` [Example 378, N~2~-({3′-[6-fluoro-3-(cis-4-{[(6-fluoroimidazo[1,2-a]pyridin-2-yl)methyl]amino}cyclohexyl)-2,4-dioxo-3,4-dihydropyrido[2,3-d]pyrimidin-1(2H)-yl]-4-hydroxybiphenyl-2-yl}methyl)-N,N,N~2~-trimethylglycinamide], with 0.316 nM.
Turning to `CN(C)Cc1cc(F)ccc1-c1cccc(-n2c(=O)n([C@H]3CC[C@@H](NC(=O)c4cn5cc(F)ccc5n4)CC3)c(=O)c3cc(F)cnc32)c1` [Example 273, N-{cis-4-[1-{2′-[(Dimethylamino)methyl]-4′-fluorobiphenyl-3-yl}-6-fluoro-2,4-dioxo-1,4-dihydropyrido[2,3-d]pyrimidin-3(2H)-yl]cyclohexyl}-6-fluoroimidazo[1,2-a]pyridine-2-carboxamide], the IC50 is 0.00398 nM.
Regarding `O=C(N[C@H]1CC[C@@H](n2c(=O)c3cc(F)cnc3n(-c3cccc(-c4ccc(CCCN5CCNCC5)cc4)c3)c2=O)CC1)c1cn2cc(F)ccc2n1` [Example 97, 6-fluoro-N-{cis-4-[6-fluoro-2,4-dioxo-1-[4′-(3-piperazin-1-ylpropyl)biphenyl-3-yl]-1,4-dihydropyrido[2,3-d]pyrimidin-3(2H)-yl]cyclohexyl}imidazo[1,2-a]pyridine-2-carboxamide], the IC50 is 0.00631 nM.
For `Cc1nc(C(=O)N[C@H]2CC[C@@H](n3c(=O)c4cc(F)cnc4n(-c4cccc(-c5ccc(CN6CCN(C(C)C)CC6)cc5)c4)c3=O)CC2)cs1` [Example 244, N-{cis-4-[6-fluoro-1-{4′-[(4-isopropylpiperazin-1-yl)methyl]biphenyl-3-yl}-2,4-dioxo-1,4-di-hydropyrido[2,3-d]pyrimidin-3(2H)-yl]cyclohexyl}-2-methyl-1,3-thiazole-4-carboxamide] the value was 0.01 nM; for `CCN(CC)CCOc1ccc(CN(C(C)=O)[C@H]2CC[C@@H](n3c(=O)c4cc(F)cnc4n(-c4cccc(-c5ccc(CN6CCN(C(C)C)CC6)cc5)c4)c3=O)CC2)cc1` [Example 340, N-{4-[2-(diethylamino)ethoxy]benzyl}-N-{cis-4-[6-fluoro-1-{4′-[(4-isopropylpiperazin-1-yl)methyl]biphenyl-3-yl}-2,4-dioxo-1,4-dihydropyrido[2,3-d]pyrimidin-3 (2H)-yl]cyclohexyl}acetamide], 1.58 nM.
For `O=c1c2cc(F)cnc2n(-c2cccc(-c3ccc(O)cc3CN3CCCCC3)c2)c(=O)n1[C@H]1CC[C@@H](NCc2cn3cc(F)ccc3n2)CC1` [Example 255, 6-Fluoro-3-(cis-4-{[(6-fluoroimidazo[1,2-c]pyridin-2-yl)methyl]amino}cyclohexyl)-1-[4′-hydroxy-2′-(piperidin-1-ylmethyl)biphenyl-3-yl]pyrido[2,3-d]pyrimidine-2,4(1H,3H)-dione] the value was 0.126 nM; for `NC1(C(=O)N[C@H]2CC[C@@H](n3c(=O)c4cc(F)cnc4n(-c4cccc(-c5ccccc5CN5CCOCC5)c4)c3=O)CC2)CCCC1` [Example 70, 1-amino-N-{cis-4-[6-fluoro-1-[2′-(morpholin-4-ylmethyl)biphenyl-3-yl]-2,4-dioxo-1,4-dihydropyrido[2,3-d]pyrimidin-3(2H)-yl]cyclohexyl}cyclopentanecarboxamide trifluoroacetate salt], 2 nM.
For `O=C(N[C@H]1CC[C@@H](n2c(=O)c3cc(F)cnc3n(-c3cccc(-c4ccc(CC5CCNCC5)cc4)c3)c2=O)CC1)c1cn2cc(F)ccc2n1` [Example 345, 6-fluoro-N-{cis-4-[6-fluoro-2,4-dioxo-1-[4′-(piperidin-4-ylmethyl)biphenyl-3-yl]-1,4-dihydropyrido[2,3-d]pyrimidin-3(2H)-yl]cyclohexyl}imidazo[1,2-a]pyridine-2-carboxamide] the value was 0.0316 nM; for `CN(C)Cc1cc(O)ccc1-c1cccc(-n2c(=O)n([C@H]3CC[C@@H](NCc4cn5cc(F)ccc5n4)CC3)c(=O)c3cc(F)cnc32)c1` [Example 277, 1-{2′-[(dimethylamino)methyl]-4′-hydroxybiphenyl-3-yl}-6-fluoro-3-(cis-4-{[(6-fluoroimidazo[1,2-a]pyridin-2-yl)methyl]amino}cyclohexyl)pyrido[2,3-d]pyrimidine-2,4(1H,3H)-dione], 0.794 nM; for `O=c1c2cc(F)cnc2n(-c2cccc(-c3ccccc3)c2)c(=O)n1[C@@H]1CCNC1` [Example 107, 1-biphenyl-3-yl-6-fluoro-3-[(3R)-pyrrolidin-3-yl]pyrido[2,3-d]pyrimidine-2,4(1H,3H)-dione], 100 nM.
